According to the supplement of paper PMC10307832:

Experiments:
Experiment in all cases: relative viability (nuclei count vs DMSO), 5 days (fraction); higher = more cells survive
[1] = compound: C[C@@H](N)c1ccc(C(=O)Nc2ccnc3[nH]ccc23)cc1 + Cc1nc(Nc2ncc(C(=O)Nc3c(C)cccc3Cl)s2)cc(N2CCN(CCO)CC2)n1 [Dasatinib] (partner 0.075 µM)
Method in brief: (§1)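 For relative viability, nuclei counts in treated wells were divided by those in vehicle wells. Lung cancer cell lines had been pin-tool dosed in 1536-well plates the day after seeding and cultured for 5 days, then fixed and stained in one step (final 0.05% Triton X-100, 1% formaldehyde, 1 ug/ml Hoechst) and imaged at 4×. Doses were one drug alone or a fixed anchor-drug dose plus five library-drug doses (not always all listed) in √10 steps, and values are duplicate-plate medians.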

[2] = compound: C1CNCCC1C2=CC(=NN2)C3=CC=NC=C3 + Cc1nc(Nc2ncc(C(=O)Nc3c(C)cccc3Cl)s2)cc(N2CCN(CCO)CC2)n1 [Dasatinib] (partner 0.075 µM)
Method in brief: as §1

Tanzisertib + Phenformin = compound: O[C@H]1CC[C@H](Nc2ncc3nc(Nc4c(F)cc(F)cc4F)n([C@H]4CCOC4)c3n2)CC1 [Tanzisertib] + N=C(N)NC(=N)NCCc1ccccc1 [Phenformin] (partner 250 µM)
Method in brief: as §1

Tanzisertib + Lapatinib = compound: O[C@H]1CC[C@H](Nc2ncc3nc(Nc4c(F)cc(F)cc4F)n([C@H]4CCOC4)c3n2)CC1 [Tanzisertib] + CS(=O)(=O)CCNCc1ccc(-c2ccc3ncnc(Nc4ccc(OCc5cccc(F)c5)c(Cl)c4)c3c2)o1 [Lapatinib] (partner 2 µM)
Method in brief: as §1

NCI-H522 was tested, and the relative viability ([1]; first compound 0.04 µM) was 0.797, the relative viability ([1]; first compound 0.1265 µM) was 0.931 and the relative viability ([1]; first compound 0.4 µM) was 0.827. For the same cell line, the relative viability ([1]; first compound 1.265 µM) was 0.771, the relative viability ([1]; first compound 4 µM) was 0.765 and the relative viability ([2]; first compound 0.08 µM) was 0.841. For the same cell line, the relative viability ([2]; first compound 0.8 µM) was 0.869, the relative viability ([2]; first compound 2.53 µM) was 0.896 and the relative viability ([2]; first compound 8 µM) was 0.967. The relative viability (Tanzisertib + Phenformin; first compound 0.08 µM) was 0.783, the relative viability (Tanzisertib + Phenformin; first compound 0.253 µM) was 0.57 and the relative viability (Tanzisertib + Phenformin; first compound 0.8 µM) was 0.667. It also gave a relative viability (Tanzisertib + Phenformin; first compound 2.53 µM) of 0.677 and a relative viability (Tanzisertib + Phenformin; first compound 8 µM) of 0.572.

LCLC-97TM1 was tested, and the relative viability ([1]; first compound 0.04 µM) was 0.989, the relative viability ([1]; first compound 0.1265 µM) was 0.905 and the relative viability ([1]; first compound 0.4 µM) was 0.984. The relative viability ([1]; first compound 1.265 µM) was 0.879, the relative viability ([1]; first compound 4 µM) was 0.794 and the relative viability ([2]; first compound 0.08 µM) was 0.875. For the same cell line, the relative viability ([2]; first compound 0.8 µM) was 0.784, the relative viability ([2]; first compound 2.53 µM) was 0.923 and the relative viability ([2]; first compound 8 µM) was 0.758. For the same cell line, the relative viability (Tanzisertib + Phenformin; first compound 0.08 µM) was 0.471, the relative viability (Tanzisertib + Phenformin; first compound 0.253 µM) was 0.425 and the relative viability (Tanzisertib + Phenformin; first compound 0.8 µM) was 0.38. For the same cell line, the relative viability (Tanzisertib + Phenformin; first compound 2.53 µM) was 0.476, the relative viability (Tanzisertib + Phenformin; first compound 8 µM) was 0.524 and the relative viability (Tanzisertib + Lapatinib; first compound 0.253 µM) was 0.92. For the same cell line, the relative viability (Tanzisertib + Lapatinib; first compound 0.8 µM) was 0.696, the relative viability (Tanzisertib + Lapatinib; first compound 2.53 µM) was 0.568 and the relative viability (Tanzisertib + Lapatinib; first compound 8 µM) was 0.863.

NCI-H1299 gave a relative viability (Tanzisertib + Lapatinib; first compound 0.08 µM) of 1.01, a relative viability (Tanzisertib + Lapatinib; first compound 0.253 µM) of 0.982 and a relative viability (Tanzisertib + Lapatinib; first compound 0.8 µM) of 0.989. It also gave a relative viability (Tanzisertib + Lapatinib; first compound 2.53 µM) of 1.05 and a relative viability (Tanzisertib + Lapatinib; first compound 8 µM) of 1.11.

Cell Line NCI-H3122 has a relative viability ([1]; first compound 0.04 µM) of 1.06, a relative viability ([1]; first compound 0.1265 µM) of 0.882 and a relative viability ([1]; first compound 0.4 µM) of 0.919. It also gave a relative viability ([1]; first compound 1.265 µM) of 0.455, a relative viability ([1]; first compound 4 µM) of 0.915 and a relative viability ([2]; first compound 0.08 µM) of 0.605. The relative viability ([2]; first compound 0.8 µM) was 0.879, the relative viability ([2]; first compound 2.53 µM) was 0.983 and the relative viability ([2]; first compound 8 µM) was 0.859. For the same cell line, the relative viability (Tanzisertib + Phenformin; first compound 0.08 µM) was 0.398, the relative viability (Tanzisertib + Phenformin; first compound 0.253 µM) was 0.423 and the relative viability (Tanzisertib + Phenformin; first compound 0.8 µM) was 0.378. For the same cell line, the relative viability (Tanzisertib + Phenformin; first compound 2.53 µM) was 0.426, the relative viability (Tanzisertib + Phenformin; first compound 8 µM) was 0.314 and the relative viability (Tanzisertib + Lapatinib; first compound 0.08 µM) was 1.03. For the same cell line, the relative viability (Tanzisertib + Lapatinib; first compound 0.253 µM) was 1.01, the relative viability (Tanzisertib + Lapatinib; first compound 0.8 µM) was 0.998 and the relative viability (Tanzisertib + Lapatinib; first compound 2.53 µM) was 1.06. The relative viability (Tanzisertib + Lapatinib; first compound 8 µM) was 1.06.

NCI-H1395 was tested, and the relative viability ([1]; first compound 0.04 µM) was 0.416, the relative viability ([1]; first compound 0.1265 µM) was 0.431 and the relative viability ([1]; first compound 0.4 µM) was 0.368. It also gave a relative viability ([1]; first compound 1.265 µM) of 0.394, a relative viability ([1]; first compound 4 µM) of 0.399 and a relative viability ([2]; first compound 0.08 µM) of 0.399. It also gave a relative viability ([2]; first compound 0.8 µM) of 0.345, a relative viability ([2]; first compound 2.53 µM) of 0.381 and a relative viability ([2]; first compound 8 µM) of 0.471. The relative viability (Tanzisertib + Phenformin; first compound 0.08 µM) was 0.481, the relative viability (Tanzisertib + Phenformin; first compound 0.253 µM) was 0.454 and the relative viability (Tanzisertib + Phenformin; first compound 0.8 µM) was 0.427. The relative viability (Tanzisertib + Phenformin; first compound 2.53 µM) was 0.456, the relative viability (Tanzisertib + Phenformin; first compound 8 µM) was 0.396 and the relative viability (Tanzisertib + Lapatinib; first compound 0.08 µM) was 1.02. The relative viability (Tanzisertib + Lapatinib; first compound 0.253 µM) was 1.1, the relative viability (Tanzisertib + Lapatinib; first compound 0.8 µM) was 1.08 and the relative viability (Tanzisertib + Lapatinib; first compound 2.53 µM) was 0.985. It also gave a relative viability (Tanzisertib + Lapatinib; first compound 8 µM) of 0.914.

Work on NCI-H2009 yielded a relative viability ([1]; first compound 0.04 µM) of 0.18, a relative viability ([1]; first compound 0.1265 µM) of 0.268 and a relative viability ([1]; first compound 0.4 µM) of 0.199. It also gave a relative viability ([1]; first compound 1.265 µM) of 0.171, a relative viability ([1]; first compound 4 µM) of 0.154 and a relative viability ([2]; first compound 0.08 µM) of 0.323. The relative viability ([2]; first compound 0.8 µM) was 0.265, the relative viability ([2]; first compound 2.53 µM) was 0.318 and the relative viability ([2]; first compound 8 µM) was 0.31. It also gave a relative viability (Tanzisertib + Phenformin; first compound 0.08 µM) of 0.52, a relative viability (Tanzisertib + Phenformin; first compound 0.253 µM) of 0.483 and a relative viability (Tanzisertib + Phenformin; first compound 0.8 µM) of 0.515. It also gave a relative viability (Tanzisertib + Phenformin; first compound 2.53 µM) of 0.593, a relative viability (Tanzisertib + Phenformin; first compound 8 µM) of 0.553 and a relative viability (Tanzisertib + Lapatinib; first compound 0.08 µM) of 1.12. The relative viability (Tanzisertib + Lapatinib; first compound 0.253 µM) was 0.983, the relative viability (Tanzisertib + Lapatinib; first compound 0.8 µM) was 0.847 and the relative viability (Tanzisertib + Lapatinib; first compound 2.53 µM) was 1.05. For the same cell line, the relative viability (Tanzisertib + Lapatinib; first compound 8 µM) was 0.296.

NCI-H1651 showed a relative viability ([1]; first compound 0.04 µM) of 0.389, a relative viability ([1]; first compound 0.1265 µM) of 0.429 and a relative viability ([1]; first compound 0.4 µM) of 0.414. For the same cell line, the relative viability ([1]; first compound 1.265 µM) was 0.288, the relative viability ([1]; first compound 4 µM) was 0.41 and the relative viability ([2]; first compound 0.08 µM) was 0.381. It also gave a relative viability ([2]; first compound 0.8 µM) of 0.404, a relative viability ([2]; first compound 2.53 µM) of 0.348 and a relative viability ([2]; first compound 8 µM) of 0.486. The relative viability (Tanzisertib + Phenformin; first compound 0.08 µM) was 0.327, the relative viability (Tanzisertib + Phenformin; first compound 0.253 µM) was 0.371 and the relative viability (Tanzisertib + Phenformin; first compound 0.8 µM) was 0.305. For the same cell line, the relative viability (Tanzisertib + Phenformin; first compound 2.53 µM) was 0.322, the relative viability (Tanzisertib + Phenformin; first compound 8 µM) was 0.332 and the relative viability (Tanzisertib + Lapatinib; first compound 0.08 µM) was 0.898. For the same cell line, the relative viability (Tanzisertib + Lapatinib; first compound 0.253 µM) was 1.03, the relative viability (Tanzisertib + Lapatinib; first compound 0.8 µM) was 0.797 and the relative viability (Tanzisertib + Lapatinib; first compound 2.53 µM) was 0.782. The relative viability (Tanzisertib + Lapatinib; first compound 8 µM) was 0.864.

HARA was tested, and the relative viability ([1]; first compound 0.1265 µM) was 0.287, the relative viability ([1]; first compound 0.4 µM) was 0.225 and the relative viability ([1]; first compound 4 µM) was 0.237. It also gave a relative viability ([2]; first compound 0.08 µM) of 0.217, a relative viability ([2]; first compound 0.8 µM) of 0.3 and a relative viability ([2]; first compound 2.53 µM) of 0.196. For the same cell line, the relative viability ([2]; first compound 8 µM) was 0.187, the relative viability (Tanzisertib + Phenformin; first compound 0.08 µM) was 0.541 and the relative viability (Tanzisertib + Phenformin; first compound 0.253 µM) was 0.401. The relative viability (Tanzisertib + Phenformin; first compound 0.8 µM) was 0.451, the relative viability (Tanzisertib + Phenformin; first compound 2.53 µM) was 0.41 and the relative viability (Tanzisertib + Phenformin; first compound 8 µM) was 0.333. For the same cell line, the relative viability (Tanzisertib + Lapatinib; first compound 0.08 µM) was 0.889, the relative viability (Tanzisertib + Lapatinib; first compound 0.253 µM) was 0.809 and the relative viability (Tanzisertib + Lapatinib; first compound 0.8 µM) was 0.81. For the same cell line, the relative viability (Tanzisertib + Lapatinib; first compound 2.53 µM) was 0.797 and the relative viability (Tanzisertib + Lapatinib; first compound 8 µM) was 0.771.

NCI-H1944 gave a relative viability ([1]; first compound 0.04 µM) of 0.183, a relative viability ([1]; first compound 0.1265 µM) of 0.192 and a relative viability ([1]; first compound 0.4 µM) of 0.182. For the same cell line, the relative viability ([1]; first compound 1.265 µM) was 0.183, the relative viability ([1]; first compound 4 µM) was 0.159 and the relative viability ([2]; first compound 0.08 µM) was 0.201. The relative viability ([2]; first compound 0.8 µM) was 0.206, the relative viability ([2]; first compound 2.53 µM) was 0.231 and the relative viability ([2]; first compound 8 µM) was 0.232. The relative viability (Tanzisertib + Phenformin; first compound 0.08 µM) was 0.23, the relative viability (Tanzisertib + Phenformin; first compound 0.253 µM) was 0.197 and the relative viability (Tanzisertib + Phenformin; first compound 0.8 µM) was 0.21. It also gave a relative viability (Tanzisertib + Phenformin; first compound 2.53 µM) of 0.198, a relative viability (Tanzisertib + Phenformin; first compound 8 µM) of 0.203 and a relative viability (Tanzisertib + Lapatinib; first compound 0.08 µM) of 0.949. The relative viability (Tanzisertib + Lapatinib; first compound 0.253 µM) was 0.935, the relative viability (Tanzisertib + Lapatinib; first compound 0.8 µM) was 0.862 and the relative viability (Tanzisertib + Lapatinib; first compound 2.53 µM) was 0.873. The relative viability (Tanzisertib + Lapatinib; first compound 8 µM) was 0.796.

In the case of NCI-H2347, the relative viability ([1]; first compound 0.04 µM) is reported as 0.54, the relative viability ([1]; first compound 0.1265 µM) is reported as 0.314 and the relative viability ([1]; first compound 0.4 µM) is reported as 0.374. For the same cell line, the relative viability ([1]; first compound 4 µM) was 0.574, the relative viability ([2]; first compound 0.08 µM) was 0.352 and the relative viability ([2]; first compound 0.8 µM) was 0.288. For the same cell line, the relative viability ([2]; first compound 2.53 µM) was 0.307, the relative viability ([2]; first compound 8 µM) was 0.332 and the relative viability (Tanzisertib + Phenformin; first compound 0.08 µM) was 0.445. The relative viability (Tanzisertib + Phenformin; first compound 0.8 µM) was 0.434, the relative viability (Tanzisertib + Phenformin; first compound 2.53 µM) was 0.306 and the relative viability (Tanzisertib + Phenformin; first compound 8 µM) was 0.376. The relative viability (Tanzisertib + Lapatinib; first compound 0.08 µM) was 1.05, the relative viability (Tanzisertib + Lapatinib; first compound 0.253 µM) was 1.01 and the relative viability (Tanzisertib + Lapatinib; first compound 0.8 µM) was 0.971. For the same cell line, the relative viability (Tanzisertib + Lapatinib; first compound 2.53 µM) was 1.07 and the relative viability (Tanzisertib + Lapatinib; first compound 8 µM) was 0.869.
